For one data set, the target named is human JNK3 enzyme (Homo sapiens, UniProt P53779). The experiment in a line: Measurement of JNK3 enzymatic activity (33P-ATP filter-binding method). The data set is classed as biochemical. To be noted: ATP 10 μM, ATF2 3 μM. The method, then:
First, a substrate was added to a prepared base reaction buffer solution (20 mM Hepes (pH 7.5), 10 mM MgCl2, 1 mM EGTA, 0.02% Brij35, 0.02 mg/ml BSA, 0.1 mM Na3VO4, 2 mM DTT, 1% DMSO), a human JNK3 enzyme was added into the prepared substrate solution, and the resulting solution was mixed. ATP (10 μM) and ATF2 (3 μM) were used as substrates, and among them, ATP was used as a common substrate. Next, the compound according to the present invention dissolved in 100% DMSO was added to an enzyme reaction solution, and incubated at room temperature for 20 minutes. Subsequently, ^33P-ATP was added to the mixed reaction solution to initiate the reaction, followed by incubation at room temperature for 2 hours, and enzymatic activity was detected by a filter-binding method. Specifically, 25 al per resulting solution was slowly spotted on P81 paper and placed in a scintillation vial, and then the paper was washed four times with 0.75% phosphoric acid for 10 minutes each and washed once with acetone for 5 minutes. 5 ml of a scintillation cocktail was added to the scintillation vial and signals were read using a scintillation counter.

The next data set has as its system P-gp (MDR1). The experiment in a line: Evaluation of migration of blood-brain barrier (BBB migration evaluation system). The data set is classed as in vitro ADME. To be noted: human, Caco-2-MDR1 cells; for Papp A→B: apical to basolateral, read-out: A to B (permeability coefficient Papp); for Papp B→A: basolateral to apical, read-out: B to A (permeability coefficient Papp). An excerpt:
(§1) The blood-brain barrier (BBB) functions as a primary barrier to prevent the invasion of foreign substances, but acts as an obstacle to treatment in pathological circumstances. That is, therapeutics for the treatment of brain diseases or maintaining the condition thereof are very unlikely to permeate the blood-brain barrier, and thus are unable to be effectively used, and accordingly, the selection of drugs for the treatment of brain diseases is limited. […] […] amount of material permeating into mebrain, A: area, and C0: initial concentration of material)

Data set [1] deals with P-gp(MDR1)-overexpressing Caco-2-MDR1 cells. The data set is described as above. The data set is classed as in vitro ADME. Particulars: class in words.
From the text: as §1

Data set [2] has as its system Alzheimer's disease transgenic mice. The experiment in a line: Reducing concentration of APP and beta-amyloid oligomer in brain tissue, western blotting. In kind it is in vivo. To be noted: IV 15 mg/kg/day three times per 1 week for a total of 2 weeks, compared to non-treated 2×TG(veh). An excerpt: JNK3 is known to phosphorylate and activate amyloid precursor protein (APP), which is the main cause of Alzheimer's disease, to thus allow the APP to be located in a cell membrane, and promotes the conversion of APP to beta-amyloid, and it has been reported that, even in a case in which, after beta-amyloid is formed, the apoptosis of neurons is induced by toxicity thereof, the activation of JNK3 acts as a main cause. Based on these facts, in the present experimental example, the derivative of the present invention (compound 35d) was administered via intravenous injection (IV) to Alzheimer's disease transgenic mice in a dose of 15 mg/kg/day three times per 1 week for a total of 2 weeks, and then changes in the concentration of APP and beta-amyloid oligomer in the frontal lobe cortex were confirmed through western blotting. Meanwhile, normal mice (WT(veh)) were used as a control, and non-treated Alzheimer's disease transgenic mice (2×TG(veh)) were used as a comparative group.
(Immunoblotting shows a protein as a band on a membrane.)

As usually defined, the IC50 is the concentration that gives 50% inhibition. One may read the efflux ratio as a quotient of directional permeabilities that is used to spot active efflux. As usually defined, the Papp A→B is the apparent permeability from the apical to the basolateral side of a cell layer. As usually defined, the Papp B→A is how fast a substance crosses the layer from the basolateral side.

Chain of human JNK3 enzyme (P53779 whole entry): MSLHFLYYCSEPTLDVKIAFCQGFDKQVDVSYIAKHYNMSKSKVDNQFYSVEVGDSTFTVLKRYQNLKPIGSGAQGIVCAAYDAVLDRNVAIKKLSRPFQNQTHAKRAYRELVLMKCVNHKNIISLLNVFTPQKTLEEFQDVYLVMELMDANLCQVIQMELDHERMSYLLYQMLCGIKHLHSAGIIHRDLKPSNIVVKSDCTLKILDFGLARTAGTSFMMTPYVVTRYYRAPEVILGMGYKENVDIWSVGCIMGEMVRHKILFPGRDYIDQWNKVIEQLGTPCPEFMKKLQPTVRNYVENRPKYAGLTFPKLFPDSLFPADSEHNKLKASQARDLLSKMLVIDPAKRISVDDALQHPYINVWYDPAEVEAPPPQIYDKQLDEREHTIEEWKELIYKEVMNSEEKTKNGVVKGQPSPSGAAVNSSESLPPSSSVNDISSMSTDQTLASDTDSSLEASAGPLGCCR

On human JNK3 enzyme (Table 2), `O=C(C1CC1)N1CCC[C@H](Nc2nccc(-n3c(-c4ccc5c(c4)OCCO5)nc4ccc(O)cc43)n2)C1` [Compound 26c, (S)-cyclopropyl(3-((4-(2-(2,3-dihydrobenzo[b][1,4]dioxin-6-yl)-6-hydroxy-1H-benzo[d]imidazole-1-yl)pyrimidin-2-yl)amino)piperidine-1-yl)methanone] yielded a half-inhibitory concentration (IC50) of 30 to 100 nM. For the same molecule, in the data set with P-gp (MDR1), the efflux ratio was 1.03, the Papp A→B was 19.2 ×10⁻⁶ cm/s and the Papp B→A was found to be 19.9 ×10⁻⁶ cm/s. Also, in data set [1], the Permeability entry is listed as “High”.

`O=C(C1CC1)N1CCC[C@H](Nc2nccc(-n3c(-c4ccc(F)c(C(F)(F)F)c4)nc4ccc(O)cc43)n2)C1` [Compound 26f, (S)-cyclopropyl(3-((4-(2-(4-fluoro-3-(trifluoromethyl)phenyl)-6-hydroxy-1H-benzo[d]imidazole-1-yl)pyrimidin-2-yl)amino)piperidine-1-yl)methanone] yielded an IC50 on human JNK3 enzyme (Table 2) of 30 to 100 nM.

The molecule `O=C(C1CC1)N1CCC[C@@H](Nc2nccc(-n3c(-c4ccc5ccccc5c4)nc4cc(O)c(O)cc43)n2)C1` [Compound 35a, (R)-cyclopropyl(3-(4-(5,6-dihydroxy-2-(naphthalene-2-yl)-1H-benzo[d]imidazole-1-yl)pyrimidin-2-ylamino)piperidine-1-yl)methanone] gave an IC50 on human JNK3 enzyme (Table 3) below 30 nM.

Regarding `O=C(C1CC1)N1CCC[C@@H](Nc2nccc(-n3c(-c4ccc(Cl)c(Cl)c4)nc4cc(O)c(O)cc43)n2)C1` [Compound 35b, (R)-cyclopropyl(3-(4-(2-(3,4-dichlorophenyl)-5,6-dihydroxy-1H-benzo[d]imidazole-1-yl)pyrimidin-2-ylamino)piperidine-1-yl)methanone], the IC50 at human JNK3 enzyme (Table 3) is below 30 nM.

In turn, `O=C(C1CC1)N1CCC[C@@H](Nc2nccc(-n3c(-c4ccc(F)c(C(F)(F)F)c4)nc4cc(O)c(O)cc43)n2)C1` [Compound 35c, (R)-cyclopropyl(3-(4-(2-(4-fluoro-3-(trifluoromethyl)phenyl)-5,6-dihydroxy-1H-benzo[d]imidazole-1-yl)pyrimidin-2-ylamino)piperidine-1-yl)methanone] yielded an IC50 on human JNK3 enzyme (Table 3) below 30 nM.

For the molecule `O=C(C1CC1)N1CCC[C@@H](Nc2nccc(-n3c(-c4ccc5c(c4)OCCO5)nc4cc(O)c(O)cc43)n2)C1` [Compound 35d, (R)-cyclopropyl(3-(4-(2-(2,3-dihydrobenzo[b][1,4]dioxin-6-yl)-5,6-dihydroxy-1H-benzo[d]imidazole-1-yl)pyrimidin-2-ylamino)piperidine-1-yl)methanone], the IC50 at human JNK3 enzyme (Table 3) is below 30 nM. Besides, in data set [2], the “concentration of beta-amyloid oligomer in the frontal lobe cortex” value is “significantly reduced” and the “expression level of APP in the frontal lobe cortex” value is “significantly reduced”. In addition, in the data set on P-gp (MDR1), the efflux ratio amounted to 1.13, the Papp A→B amounted to 17.3 ×10⁻⁶ cm/s and the Papp B→A came to 19.6 ×10⁻⁶ cm/s. Further, the Permeability result in data set [1] was “High”.

At human JNK3 enzyme (Table 3), `O=C(C1CC1)N1CCC[C@@H](Nc2nccc(-n3c(-c4ccc5occc5c4)nc4cc(O)c(O)cc43)n2)C1` [Compound 35e, (R)-(3-(4-(2-(benzofuran-5-yl)-5,6-dihydroxy-1H-benzo[d]imidazole-1-yl)pyrimidin-2-ylamino)piperidine-1-yl)(cyclopropyl)methanone] came in with an IC50 below 30 nM.

Consider `Oc1c2ccccc2c2c3c(cccc13)N=N2` [SP600125, reference compound], for which the IC50 at human JNK3 enzyme (Table 1), at human JNK3 enzyme (Table 2) and at human JNK3 enzyme (Table 3) was 30 to 100 nM in each case.

For the origin of these results see patent US10781201B2, “Benzimidazole derivative having JNK inhibitory activity and use thereof” (INDUSTRY-UNIVERSITY COOPERATION FOUNDATION HANYANG …, priority 2017, dated 2020).
